Assay [1] relates to HIV-infected ATH8 cells / human lymphoid cell lines. The note with it: compared with corresponding saturated derivatives; cited from earlier work.
Assay [2] relates to HIV. Nature of the assay: microbe, parasite or virus in culture. It is filed as cell-based.
Assay [3] concerns HIV. Nature of the assay: Protection against HIV replication in MT-4 cells. The class given is cell-based. Conditions: for inhibition at 0.1 µM: Human immunodeficiency virus 1, MT4, 0.1 μM.
Assay [4] deals with HIV. Kind of assay: microbe, parasite or virus in culture. The class given is cell-based. Conditions: Human immunodeficiency virus 1, MT4, read-out: % Inhibition of viral antigen expression.
Assay [5] deals with HIV. Kind of assay: microbe, parasite or virus in culture. It is filed as cell-based. Conditions: for EC50: Human immunodeficiency virus 1, ATH-8, read-out: EID50 for inhibition of HIV cytopathogenicity. In general terms: Cytopathic effects are the visible damage that an infection or toxin causes in cultured cells.
Assay [6] has as its system herpes simplex virus type 1. Nature of the assay: Antiviral activity against other viruses. The note with it: Human alphaherpesvirus 1, HeLa, Vero or PRK cell cultures, read-out: 50% effective inhibitory dose (EID50). It is filed as cell-based.
Assay [7] deals with herpes simplex virus type 2. Nature of the assay: Antiviral activity against other viruses. The note with it: Human alphaherpesvirus 2, HeLa, Vero or PRK cell cultures, read-out: 50% effective inhibitory dose (EID50). The class given is cell-based.
The next assay has as its system vaccinia virus. Nature of the assay: microbe, parasite or virus in culture. It is filed as cell-based. Conditions: Orthopoxvirus vaccinia, read-out: 50% effective inhibitory dose (EID50).
The subject of assay [8] is vesicular stomatitis virus. Kind of assay: microbe, parasite or virus in culture. Conditions: read-out: 50% effective inhibitory dose (EID50). The class given is cell-based.
In a further assay the test system is Sindbis virus. Kind of assay: Antiviral activity against other viruses. It is filed as cell-based. Conditions: HeLa, Vero or PRK cell cultures, read-out: 50% effective inhibitory dose (EID50).
In the next assay the test system is Coxsackie B4 virus. Nature of the assay: Antiviral activity against other viruses. The class given is cell-based. Conditions: Enterovirus B, HeLa, Vero or PRK cell cultures, read-out: 50% effective inhibitory dose (EID50).
The test system of another assay is polio virus type 1. Kind of assay: organism not typed. It is filed as cell-based. The note with it: read-out: 50% effective inhibitory dose (EID50).
The subject of a further assay is reovirus type 1. Nature of the assay: Antiviral activity against other viruses. It is filed as cell-based. The note with it: Mammalian orthoreovirus 1, HeLa, Vero or PRK cell cultures, read-out: 50% effective inhibitory dose (EID50).
In assay [9] the test system is parainfluenza virus type 3. Nature of the assay: Antiviral activity against other viruses. It is filed as cell-based. Conditions: Human respirovirus 3, HeLa, Vero or PRK cell cultures, read-out: 50% effective inhibitory dose (EID50).
Assay [10] deals with DNA viruses and RNA viruses. Nature of the assay: Antiviral activity against other viruses, overall statement. It is filed as cell-based. The note with it: in words.
The subject of the next assay is FM3A cells. Kind of assay: Cytostatic effect (inhibition of cell proliferation). The class given is cell-based, murine. The note with it: Mus musculus, read-out: IC50 (50%-inhibitory concentration, cell proliferation). How it is done: (§1) The compounds ddeCyd and ddCyd were evaluated for their cytostatic effect against a series of murin and human cell lines. This was based upon measuring the inhibition of cell proliferation according to the procedures described by De Clercq et al. in Mol.Pharmacol. 19, 321-330 (1981).
(§2) The following cell lines were used: murine leukemia L1210 cells, designated L1210/0; murine mammary carcinoma FM3A cells; human B-lymphoblast Raji cells; human T-lymphoblast Molt/4F cells; human T4 -lymphocyte ATH8 cells and human T4 -lymphocyte MT-4 cells.

The subject of the next assay is L1210/0 cells. The description is as above. It is filed as cell-based, murine. The note with it: Mus musculus, read-out: IC50 (50%-inhibitory concentration, cell proliferation). How it is done:
as §1, §2

For the next assay, the system named is ATH8 cells. Described as above. The note with it: Homo sapiens, ATH-8, read-out: IC50 (50%-inhibitory concentration, cell proliferation). It is filed as cell-based. How it is done:
as §1, §2

The test system of a further assay is MT-4 cells. The description is as above. The class given is cell-based. Conditions: Homo sapiens, MT4, read-out: IC50 (50%-inhibitory concentration, cell proliferation). How it is done:
as §1, §2

For another assay, the system named is Molt/4F cells. The assay is described as above. It is filed as cell-based. The note with it: Homo sapiens, read-out: IC50 (50%-inhibitory concentration, cell proliferation). How it is done: as §1, §2
The next assay concerns Raji cells. Described as above. It is filed as cell-based. The note with it: Homo sapiens, read-out: IC50 (50%-inhibitory concentration, cell proliferation). How it is done: as §1, §2
Assay [11] deals with HIV. Conditions: cited from earlier work.

On to `Nc1ncnc2c1ncn2[C@H]1C=C[C@@H](CO)O1` [2',3'-unsaturated 2',3'-dideoxyadenosine], for which the “protection of HIV-infected ATH8 cells and/or cytostatic activity against human lymphoid cell lines” value in assay [1] is listed as “significantly less protective against HIV-infected ATH8 cells and/or considerably more cytostatic against human lymphoid cell lines”.

With `Nc1ccn([C@H]2C=C[C@@H](CO)O2)c(=O)n1` [ddeCyd, 2',3'-didehydro-2'-3'-dideoxycytidine], in the assay on HIV [2], the “antiviral potency upon prolonged exposure” value was “decrease in antiviral potency”. In addition, in the assay with HIV [2], the “protection of cells against destruction by the virus” value is “almost complete protection”. Further, the “protective effect at a longer time interval” value in the assay on HIV [2] (10 days (vs 7 days), ATH8 cells) is listed as “somewhat lower”. In addition, the inhibition at 0.1 µM in the assay on HIV [2] (Human immunodeficiency virus 1, ATH-8, 168 h, read-out: protection of cells against destruction by the virus) is approximately 40%; with HIV [3] it was 28%; with HIV [4], 20%. In the assay on HIV [2] (Human immunodeficiency virus 1, ATH-8, 240 h, 10 days, ATH8 cells, read-out: concentration for optimum protection), the EC (optimum protection) was approximately 2 µM. Also, the inhibition at 0.5 µM is 91% in the assay on HIV [3] (Human immunodeficiency virus 1, MT4, 0.5 μM) and 85% in the assay with HIV [4]. Also, in the assay with HIV [4] (0.02 μM), the inhibition at 0.02 µM came to 8%. In addition, the inhibition at 2 µM in the assay on HIV [4] is 98%. Further, the inhibition at 5 µM with HIV [4] came to 98%. Moreover, the inhibition at 20 µM in the assay on HIV [4] turned out to be 96%. Besides, the “effectiveness in inhibiting cytopathogenicity and antigen expression of HIV” value with HIV [5] (ATH 8 and MT-4 cells, compared with 2',3'-dideoxycytidine) is “almost as effective as 2',3'-dideoxycytidine”. In addition, the EC50 is 100 to 300 nM in the assay with HIV [5]; more than 100 µM in assay [6]; more than 100 µM in assay [7]; more than 100 µM with vaccinia virus; more than 100 µM in assay [8]; more than 100 µM in the assay with Sindbis virus. For the same compound, the EC50 (in the assay on Coxsackie B4 virus; in the assay with polio virus type 1; in the assay with reovirus type 1; in assay [9]) was more than 100 µM in each case. Moreover, the “fold by which HIV-inhibiting concentrations are below any toxicity for the host cells” value in the assay with HIV [5] (T-cells) is “at least 100 fold”. Moreover, in the assay with HIV [5] (in words), the “inhibition of human immunodeficiency virus in cell cultures” value was “potent and selective inhibitor of human immunodeficiency virus in cell cultures”. Moreover, the figures for the “antiviral effect against other (non-oncogenic RNA and DNA) viruses” value in assay [10] and in assay [10] (listed as 2',3'-dideoxycytidinene) were “neither ddeCyd nor ddCyd demonstrated any significant antiviral effect” and “not show any inhibitory effect”, respectively. Further, the IC50 with FM3A cells is 1.16 mM; in the assay with L1210/0 cells, 196 µM; in the assay with ATH8 cells, 30 µM; in the assay with MT-4 cells it was 15 µM; in the assay on Molt/4F cells it was 20 µM; with Raji cells it was 13 µM.

Consider `Nc1ccn([C@H]2CC[C@@H](CO)O2)c(=O)n1` [ddCyd, 2',3'-dideoxycytidine, reference compound], for which the “antiviral potency upon prolonged exposure” value with HIV [2] was “without decrease upon prolonged exposure”. Further, in the assay with HIV [2] (0.5 μM, ATH8 cells, no decrease upon prolonged exposure), the “protection of ATH8 cells” value was “completely protected”. Moreover, the inhibition at 0.1 µM was 75% in the assay on HIV [2] (Human immunodeficiency virus 1, ATH-8, 0.1 μM, ATH8 cells, no decrease upon prolonged exposure, read-out: protection against HIV replication in ATH8 cells); 75% in the assay with HIV [3]; 70% in the assay with HIV [4]. The “protection of MT-4 cells” value in the assay with HIV [3] (0.5 μM, in words) is reported as “completely protected”. Further, in the assay on HIV [4], the inhibition at 0.5 µM was 96%. The inhibition at 2 µM with HIV [4] came to 97%. The inhibition at 5 µM in the assay with HIV [4] was 97%. Moreover, the inhibition at 20 µM in the assay with HIV [4] stood at 96%. In addition, the EC50 in the assay on HIV [5] was 100 to 300 nM; in [6] it was more than 100 µM; in assay [7], more than 100 µM; with vaccinia virus, more than 100 µM; in [8], more than 100 µM; in the assay on Sindbis virus, more than 100 µM. The EC50 (in the assay with Coxsackie B4 virus; in the assay with polio virus type 1; with reovirus type 1; in assay [9]) was more than 100 µM in each case. The “antiviral effect against other (non-oncogenic RNA and DNA) viruses” value in [10] was “neither ddeCyd nor ddCyd demonstrated any significant antiviral effect”. In addition, the IC50 is more than 2.37 mM in the assay with FM3A cells; 320 µM in the assay with L1210/0 cells; 35 µM with ATH8 cells; 35 µM in the assay with MT-4 cells; 17 µM in the assay with Molt/4F cells; 12 µM in the assay with Raji cells. The “concentration effecting complete antiviral protection” value with HIV [11] (in vitro) is 0.5 to 1.0 µM.

As for `Cc1cn([C@H]2C[C@H](N=[N+]=[N-])[C@@H](CO)O2)c(=O)[nH]c1=O` [azidothymidine, 3'-azido-2',2'-dideoxythymidine], the “inhibition of HIV replication” value in the assay on HIV [11] (lymphocyte cultures) is listed as “potent inhibitor of HIV replication”.

For the compound `Cc1cn([C@H]2C=C[C@@H](CO)O2)c(=O)[nH]c1=O` [2',3'-unsaturated 2',3'-dideoxythymidine], in assay [1], the “protection of HIV-infected ATH8 cells and/or cytostatic activity against human lymphoid cell lines” value is on record as “significantly less protective against HIV-infected ATH8 cells and/or considerably more cytostatic against human lymphoid cell lines”.
